Laboratory results from patent US20260083687A1, “COMPOUNDS FOR REDUCING LACTATION AND IMPROVING HEALTH” (AHV International B.V., priority 2022, published 2026).

Test system: cows (Holstein Friesians)
Experiment: Dose-response DPD treatment and milk yield (Example 2)
Format: in vivo, cow
Settings: for Milk yield Last milking: before administration; for % reduction after 24 h / % reduction after 48 h / % reduction after 72 h / % reduction after 96 h: vs milk yield before treatment
Source text: Study design. Twenty-seven cows (Holstein Friesians) from 2 farms were used. […] The cows were milked twice a day. The cows were housed in free stables.
[…] For each dosage 3 cows were used.

- behavior of the cows (more than 100 ml DPD): looked like to become more active
SMILES: CCCSSCCC [DPD, di-n-propyl disulfide]
- Average reduction 24 and 48 h (%) (10 ml DPD): −3.3%
- Milk yield After 24 h (10 ml DPD): 14.45 kg
- Milk yield After 48 h (10 ml DPD): 13.98 kg
- Milk yield After 72 h (10 ml DPD): 12.99 kg
- Milk yield After 96 h (10 ml DPD): 13.78 kg
- Milk yield Last milking (10 ml DPD): 13.76 kg
- % reduction after 24 h (10 ml DPD): −5%
- % reduction after 48 h (10 ml DPD): −1.6%
- % reduction after 72 h (10 ml DPD): 5.6%
- % reduction after 96 h (10 ml DPD): 0%
- Average reduction 24 and 48 h (%) (20 ml DPD): 23%
- Milk yield After 24 h (20 ml DPD): 9.42 kg
- Milk yield After 48 h (20 ml DPD): 10.2 kg
- Milk yield After 72 h (20 ml DPD): 12.93 kg
- Milk yield After 96 h (20 ml DPD): 12.68 kg
- effect on milk yield compared to the milk yield before treatment (20 ml DPD): clear lowering on milk yield
- Milk yield Last milking (20 ml DPD): 12.72 kg
- % reduction after 24 h (20 ml DPD): 26%
- % reduction after 48 h (20 ml DPD): 20%
- % reduction after 72 h (20 ml DPD): −1.7%
- % reduction after 96 h (20 ml DPD): 0%
- Average reduction 24 and 48 h (%) (50 ml DPD): 33%
- Milk yield After 24 h (50 ml DPD): 10.03 kg
- Milk yield After 48 h (50 ml DPD): 8.38 kg
- Milk yield After 72 h (50 ml DPD): 14.16 kg
- Milk yield After 96 h (50 ml DPD): 13.68 kg
- Milk yield Last milking (50 ml DPD): 13.73 kg
- % reduction after 24 h (50 ml DPD): 27%
- % reduction after 48 h (50 ml DPD): 39%
- % reduction after 72 h (50 ml DPD): −3.1%
- % reduction after 96 h (50 ml DPD): 0%
- Average reduction 24 and 48 h (%) (80 ml DPD): 55%
- Milk yield After 24 h (80 ml DPD): 8.46 kg
- Milk yield After 48 h (80 ml DPD): 7.40 kg
- Milk yield After 72 h (80 ml DPD): 15.63 kg
- Milk yield After 96 h (80 ml DPD): 17.65 kg
- Milk yield Last milking (80 ml DPD): 17.63 kg
- % reduction after 24 h (80 ml DPD): 52%
- % reduction after 48 h (80 ml DPD): 58%
- % reduction after 72 h (80 ml DPD): 11.3%
- % reduction after 96 h (80 ml DPD): 0%
- behavior of the cows (80 ml or more DPD): became restless and showed a more active behavior
- Average reduction 24 and 48 h (%) (100 ml DPD): 51%
- Milk yield After 24 h (100 ml DPD): 8.12 kg
- Milk yield After 48 h (100 ml DPD): 8.44 kg
- Milk yield After 72 h (100 ml DPD): 13.33 kg
- Milk yield After 96 h (100 ml DPD): 16.55 kg
- Milk yield Last milking (100 ml DPD): 16.23 kg
- % reduction after 24 h (100 ml DPD): 50%
- % reduction after 48 h (100 ml DPD): 52%
- % reduction after 72 h (100 ml DPD): 17.9%
- % reduction after 96 h (100 ml DPD): −0.2%
- Average reduction 24 and 48 h (%) (150 ml DPD): 62%
- Milk yield After 24 h (150 ml DPD): 8.72 kg
- Milk yield After 48 h (150 ml DPD): 5.17 kg
- Milk yield After 72 h (150 ml DPD): 11.24 kg
- Milk yield After 96 h (150 ml DPD): 14.63 kg
- Milk yield Last milking (150 ml DPD): 14.78 kg
- % reduction after 24 h (150 ml DPD): 59%
- % reduction after 48 h (150 ml DPD): 65%
- % reduction after 72 h (150 ml DPD): 24%
- % reduction after 96 h (150 ml DPD): 0%
- Average reduction 24 and 48 h (%) (175 ml DPD): 55%
- Milk yield After 24 h (175 ml DPD): 8.44 kg
- Milk yield After 48 h (175 ml DPD): 8.75 kg
- Milk yield After 72 h (175 ml DPD): 13.24 kg
- Milk yield Last milking (175 ml DPD): 15.63 kg
- % reduction after 24 h (175 ml DPD): 54%
- % reduction after 48 h (175 ml DPD): 56%
- % reduction after 72 h (175 ml DPD): 15.3%
- Average reduction 24 and 48 h (%) (200 ml DPD): 52%
- Milk yield After 24 h (200 ml DPD): 11.29 kg
- Milk yield After 48 h (200 ml DPD): 10.87 kg
- Milk yield After 72 h (200 ml DPD): 13.56 kg
- Milk yield Last milking (200 ml DPD): 21.31 kg
- % reduction after 24 h (200 ml DPD): 53%
- % reduction after 48 h (200 ml DPD): 51%
- % reduction after 72 h (200 ml DPD): 36.4%
- behavior and eating behavior of the cows (after DPD administration): relaxed and quiet behavior and no change in eating behavior was observed
- adverse effects (dose of 200 grams administered to a cow): without demonstrating any adverse effects
- effect on milk yield (more than 80 ml DPD): no further decrease of milk yield was observed
- dosage at which the milk yield decrease became visible (single oral dose): ≥ 20 mL
- dosage giving maximum response (milk yield decrease) (single oral dose): ≥ 80 mL
- duration of the effect of DPD on milk yield (single oral dose): disappears on the 3rd and 4th day after treatment
- behavior of the cows (until 80 ml DPD): no undesired behavior of the cows was observed
